Experimental data: patent US10285989B2, “Pyrimidinone amide compounds as PDE2 inhibitors” (Merck Sharp & Dohme Corp., priority 2015, dated 2019)
Where two headings read alike, the source gives them in different places.

How the values were obtained:
[1] = target: P-glycoprotein (P-gp, rat Mdr1a) (Rattus norvegicus, UniProt Q6PSM0); assay: P-gp transport, experimental BA/AB ratio, rat LLC-Mdr1a; type: in vitro ADME; settings: LLC-PK1; rat LLC-Mdrla; 1 μM substrate concentration
Source text: (§1) See Doan et al. “Passive permeability and P-glycoprotein-mediated efflux differentiate central nervous system (CNS) and non-CNS marketed drugs”, J. Pharm. Exper. […] Desirable human BA/AB ratio is less than 2.0. […] See, for example, Desai, et al. Integration of in Silico and in Vitro Tools for Scaffold Optimization during Drug Discovery: Predicting P-glycoprotein Efflux” Mol. Pharmac.

Rhesus PDE2A3 = Rhesus PDE2A3 (Macaca mulatta, UniProt B3VTJ2); assay: PDE2 fluorescence polarization (IMAP FP) inhibition assay, rhesus PDE2A3; type: biochemical, rhesus macaque
Rhesus PDE2A3, sequence (B3VTJ2 1-941): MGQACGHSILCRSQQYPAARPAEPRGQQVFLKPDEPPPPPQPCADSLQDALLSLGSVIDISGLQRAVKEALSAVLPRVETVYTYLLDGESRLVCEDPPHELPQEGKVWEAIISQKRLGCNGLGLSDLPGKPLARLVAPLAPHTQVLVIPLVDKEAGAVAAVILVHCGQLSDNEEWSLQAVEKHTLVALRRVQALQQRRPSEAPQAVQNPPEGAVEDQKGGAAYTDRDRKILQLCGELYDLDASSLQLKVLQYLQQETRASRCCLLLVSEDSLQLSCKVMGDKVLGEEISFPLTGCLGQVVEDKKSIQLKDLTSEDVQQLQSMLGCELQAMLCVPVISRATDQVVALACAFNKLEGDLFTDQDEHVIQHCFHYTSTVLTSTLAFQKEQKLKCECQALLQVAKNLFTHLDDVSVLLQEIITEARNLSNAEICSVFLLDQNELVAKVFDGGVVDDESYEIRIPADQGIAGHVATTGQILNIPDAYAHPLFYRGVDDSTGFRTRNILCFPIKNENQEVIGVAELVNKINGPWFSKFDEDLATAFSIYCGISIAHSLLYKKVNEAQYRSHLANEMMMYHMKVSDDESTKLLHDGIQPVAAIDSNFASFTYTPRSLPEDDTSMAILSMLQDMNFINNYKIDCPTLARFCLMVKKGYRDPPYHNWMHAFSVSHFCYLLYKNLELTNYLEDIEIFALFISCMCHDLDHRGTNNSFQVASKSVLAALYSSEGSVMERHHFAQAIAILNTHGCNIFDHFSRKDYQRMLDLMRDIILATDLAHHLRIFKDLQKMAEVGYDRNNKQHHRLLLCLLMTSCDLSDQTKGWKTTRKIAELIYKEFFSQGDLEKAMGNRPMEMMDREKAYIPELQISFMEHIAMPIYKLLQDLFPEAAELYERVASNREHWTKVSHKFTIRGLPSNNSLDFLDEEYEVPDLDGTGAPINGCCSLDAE

human PDE2A1 = human PDE2A1 (Homo sapiens (Human), UniProt O00408); assay: PDE2 IMAP FP inhibition assay, human PDE2A1 (selectivity panel format); type: biochemical
human PDE2A1, sequence (O00408 other isoform, or with tags, fused parts or gaps): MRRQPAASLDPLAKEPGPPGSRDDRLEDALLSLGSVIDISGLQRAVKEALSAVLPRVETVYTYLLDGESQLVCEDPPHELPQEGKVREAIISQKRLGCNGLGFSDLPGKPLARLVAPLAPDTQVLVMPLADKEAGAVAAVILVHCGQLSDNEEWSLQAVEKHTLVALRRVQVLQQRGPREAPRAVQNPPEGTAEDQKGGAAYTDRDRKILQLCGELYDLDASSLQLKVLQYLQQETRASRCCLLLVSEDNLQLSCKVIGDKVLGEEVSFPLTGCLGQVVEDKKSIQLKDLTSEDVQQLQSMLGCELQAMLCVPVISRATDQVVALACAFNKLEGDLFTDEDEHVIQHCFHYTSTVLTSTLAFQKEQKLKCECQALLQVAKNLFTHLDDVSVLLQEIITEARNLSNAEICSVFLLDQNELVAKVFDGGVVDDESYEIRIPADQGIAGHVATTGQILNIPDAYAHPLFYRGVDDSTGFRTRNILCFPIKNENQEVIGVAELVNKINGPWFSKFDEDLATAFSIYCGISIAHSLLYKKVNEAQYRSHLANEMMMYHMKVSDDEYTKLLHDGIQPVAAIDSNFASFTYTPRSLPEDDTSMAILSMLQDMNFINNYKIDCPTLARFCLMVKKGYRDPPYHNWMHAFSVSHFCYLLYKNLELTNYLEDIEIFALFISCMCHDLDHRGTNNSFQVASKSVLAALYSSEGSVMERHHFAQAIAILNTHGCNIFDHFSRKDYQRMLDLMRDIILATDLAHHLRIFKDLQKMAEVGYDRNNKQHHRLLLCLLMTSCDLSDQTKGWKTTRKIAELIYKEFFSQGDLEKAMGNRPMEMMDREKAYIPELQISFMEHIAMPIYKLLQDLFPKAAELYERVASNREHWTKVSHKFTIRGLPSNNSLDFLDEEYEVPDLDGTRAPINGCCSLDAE
How it was run: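 IMAP fluorescence polarization assay; substrate 50 nM FAM-cAMP with 1000 nM cGMP, enzyme at ~20% conversion, in 10 mM Tris pH 7.2, 10 mM MgCl2, 1 mM DTT, 0.01% Tween-20. 60 min room temperature, stopped with IMAP binding reagent, 1 h, then parallel/perpendicular fluorescence read.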

P-glycoprotein (P-gp) = P-glycoprotein (P-gp) (Homo sapiens (Human), UniProt P08183); assay: P-gp transport, experimental BA/AB ratio, human; type: in vitro ADME; settings: LLC-PK1, 1 μM substrate concentration
P-glycoprotein (P-gp), sequence (P08183 whole entry): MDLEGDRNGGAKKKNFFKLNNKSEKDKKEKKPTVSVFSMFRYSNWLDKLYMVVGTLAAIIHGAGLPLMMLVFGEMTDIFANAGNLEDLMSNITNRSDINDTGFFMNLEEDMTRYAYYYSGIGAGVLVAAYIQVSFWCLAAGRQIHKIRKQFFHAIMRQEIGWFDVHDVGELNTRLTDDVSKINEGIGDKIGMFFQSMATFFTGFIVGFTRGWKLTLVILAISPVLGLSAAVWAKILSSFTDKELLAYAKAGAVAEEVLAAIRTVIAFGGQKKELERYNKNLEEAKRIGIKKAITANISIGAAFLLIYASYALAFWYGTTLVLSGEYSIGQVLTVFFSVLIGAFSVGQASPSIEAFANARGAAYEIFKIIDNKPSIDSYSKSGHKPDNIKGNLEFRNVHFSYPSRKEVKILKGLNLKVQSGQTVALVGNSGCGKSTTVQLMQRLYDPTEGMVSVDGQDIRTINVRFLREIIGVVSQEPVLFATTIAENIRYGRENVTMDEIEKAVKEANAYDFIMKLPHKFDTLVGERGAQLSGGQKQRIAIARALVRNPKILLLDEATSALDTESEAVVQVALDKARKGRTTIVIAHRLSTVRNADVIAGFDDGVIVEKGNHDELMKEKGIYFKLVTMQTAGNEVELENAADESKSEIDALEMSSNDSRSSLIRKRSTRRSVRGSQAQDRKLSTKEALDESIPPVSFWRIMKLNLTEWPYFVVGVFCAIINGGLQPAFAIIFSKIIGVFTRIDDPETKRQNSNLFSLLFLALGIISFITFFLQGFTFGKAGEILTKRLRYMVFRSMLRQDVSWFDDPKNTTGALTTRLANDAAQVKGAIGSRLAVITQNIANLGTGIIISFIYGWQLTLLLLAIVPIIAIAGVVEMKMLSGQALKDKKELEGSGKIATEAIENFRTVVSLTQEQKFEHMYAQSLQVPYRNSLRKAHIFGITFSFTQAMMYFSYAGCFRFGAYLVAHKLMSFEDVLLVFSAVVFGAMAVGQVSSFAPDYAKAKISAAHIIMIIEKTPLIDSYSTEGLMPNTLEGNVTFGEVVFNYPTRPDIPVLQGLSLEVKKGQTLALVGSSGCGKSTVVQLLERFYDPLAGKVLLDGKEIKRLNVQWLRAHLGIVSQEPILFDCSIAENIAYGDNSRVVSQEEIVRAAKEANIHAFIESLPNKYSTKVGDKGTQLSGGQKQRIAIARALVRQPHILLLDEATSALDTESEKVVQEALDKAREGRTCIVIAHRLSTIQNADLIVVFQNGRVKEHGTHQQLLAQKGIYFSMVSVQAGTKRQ
Source text: as §1

[2] = Lab B, read-out: Rhesus PDE2 Ki (nM) - Lab B
[3] = Lab B, read-out: Human PDE2 Ki (nM) - Lab B
[4] = Lab A, read-out: Rhesus PDE2 Ki (nM) - Lab A
[5] = Lab A, read-out: Human PDE2 Ki (nM) - Lab A

P-glycoprotein (P-gp, rat Mdr1a), sequence (Q6PSM0 1-1272): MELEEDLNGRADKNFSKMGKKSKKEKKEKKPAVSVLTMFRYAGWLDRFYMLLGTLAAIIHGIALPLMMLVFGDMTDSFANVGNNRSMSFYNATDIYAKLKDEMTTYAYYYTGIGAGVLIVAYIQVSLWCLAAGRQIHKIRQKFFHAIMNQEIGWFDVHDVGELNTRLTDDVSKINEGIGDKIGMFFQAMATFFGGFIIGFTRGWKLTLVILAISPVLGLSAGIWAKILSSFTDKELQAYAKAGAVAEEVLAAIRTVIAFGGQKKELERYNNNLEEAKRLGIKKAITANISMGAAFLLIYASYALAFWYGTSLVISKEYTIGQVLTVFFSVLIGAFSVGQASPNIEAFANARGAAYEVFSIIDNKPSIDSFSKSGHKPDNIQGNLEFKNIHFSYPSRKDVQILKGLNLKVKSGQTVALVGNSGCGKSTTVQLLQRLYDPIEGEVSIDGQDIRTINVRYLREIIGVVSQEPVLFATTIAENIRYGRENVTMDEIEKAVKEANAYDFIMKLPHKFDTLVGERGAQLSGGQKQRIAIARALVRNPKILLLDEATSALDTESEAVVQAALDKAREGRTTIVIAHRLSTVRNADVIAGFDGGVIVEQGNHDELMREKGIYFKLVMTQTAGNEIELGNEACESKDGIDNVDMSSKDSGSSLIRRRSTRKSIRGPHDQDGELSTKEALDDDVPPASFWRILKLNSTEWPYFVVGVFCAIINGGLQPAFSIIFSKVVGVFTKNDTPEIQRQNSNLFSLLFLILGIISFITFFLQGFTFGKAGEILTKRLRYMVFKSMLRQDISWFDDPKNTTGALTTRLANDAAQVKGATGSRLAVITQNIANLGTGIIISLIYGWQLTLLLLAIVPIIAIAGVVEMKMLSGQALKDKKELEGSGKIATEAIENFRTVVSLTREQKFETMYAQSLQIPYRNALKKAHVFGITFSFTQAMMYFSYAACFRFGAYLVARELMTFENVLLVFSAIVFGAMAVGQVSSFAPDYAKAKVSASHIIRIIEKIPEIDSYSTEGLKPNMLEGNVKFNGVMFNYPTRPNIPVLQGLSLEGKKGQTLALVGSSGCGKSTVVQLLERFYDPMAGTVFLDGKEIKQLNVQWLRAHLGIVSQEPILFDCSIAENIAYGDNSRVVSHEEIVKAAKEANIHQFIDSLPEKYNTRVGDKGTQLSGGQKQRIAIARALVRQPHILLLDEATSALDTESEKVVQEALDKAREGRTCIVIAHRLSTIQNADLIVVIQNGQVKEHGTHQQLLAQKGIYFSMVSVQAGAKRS

| SMILES | efflux ratio at 1 μM [1] | Ki (Rhesus PDE2A3; [2]) [nM] | Ki (human PDE2A1; [3]) [nM] | efflux ratio at 1 μM (P-glycoprotein (P-gp)) | Ki (Rhesus PDE2A3; [4]) [nM] | Ki (human PDE2A1; [5]) [nM] |
| --- | --- | --- | --- | --- | --- | --- |
| CC(C)[C@@H](NC(=O)c1cc(=O)[nH]c(N(C)C)n1)c1ccc(C(F)(F)F)cc1 [Example 47, 2-(dimethylamino)-N-{(1R)-2-methyl-1-[4-(trifluoromethyl)phenyl]propyl}-6-oxo-1,6-dihydropyrimidine-4-carboxamide] | 2.1 | 0.43 | 0.44 | 0.6 |  |  |
| CC(C)[C@@H](NC(=O)c1cc(=O)[nH]c(N(C)C)n1)c1ccc(OC(F)F)c(F)c1 [Example 48, N-{(1R)-1-[4-(difluoromethoxy)-3-fluorophenyl]-2-methylpropyl}-2-(dimethylamino)-6-oxo-1,6-dihydropyrimidine-4-carboxamide] | 6.4 | 1.9 | 1.7 | 1.5 |  |  |
| CN(C)c1nc(C(=O)N[C@@H](c2ccc(OC(F)F)c(F)c2)C(C)(C)C)cc(=O)[nH]1 [Example 54, N-{(1R)-1-[4-(difluoromethoxy)-3-fluorophenyl]-2,2-dimethylpropyl}-2-(dimethylamino)-6-oxo-1,6-dihydropyrimidine-4-carboxamide] | 4.8 | 0.32 | 0.38 | 1.4 |  |  |
| CN(C)c1nc(C(=O)N[C@@H](c2ccc(OC(F)F)c(F)c2)C2(C)CC2)cc(=O)[nH]1 [Example 55, N-[(R)-[4-(difluoromethoxy)-3-fluorophenyl](1-methylcyclopropyl)methyl]-2-(dimethylamino)-6-oxo-1,6-dihydropyrimidine-4-carboxamide] | 3.4 | 1.4 | 0.98 | 0.6 |  |  |
| CN(C)c1nc(C(=O)N[C@@H](c2ccc(C3CC3)c(F)c2)C2CC2)cc(=O)[nH]1 [Example 56, N-[(R)-cyclopropyl(4-cyclopropyl-3-fluorophenyl)methyl]-2-(dimethylamino)-6-oxo-1,6-dihydropyrimidine-4-carboxamide] | 1.7 | 0.71 | 0.51 | 0.3 |  |  |
| CN(C)c1nc(C(=O)N[C@@H](c2ccc(S(F)(F)(F)(F)F)cc2)C2(C)CC2)cc(=O)[nH]1 [Example 57, 2-(dimethylamino)-N-{(R)-(1-methylcyclopropyl)[4-(pentafluoro-λ^6-sulfanyl)phenyl]methyl}-6-oxo-1,6-dihydropyrimidine-4-carboxamide] | 0.7 | 0.28 | 0.31 | 1.7 |  |  |
| CN(C)c1nc(C(=O)N[C@@H](c2ccc(C3CC3)c(F)c2)C(C)(C)C)cc(=O)[nH]1 [Example 58, N-[(1R)-1-(4-cyclopropyl-3-fluorophenyl)-2,2-dimethylpropyl]-2-(dimethylamino)-6-oxo-1,6-dihydropyrimidine-4-carboxamide] | 4.7 | 0.1 | 0.03 | 1.3 |  |  |
| CN(C)c1nc(C(=O)N[C@@H](c2ccc(C(F)F)cc2)C(C)(C)C)cc(=O)[nH]1 [Example 60, N-{(1R)-1-[4-(difluoromethyl)phenyl]-2,2-dimethylpropyl}-2-(dimethylamino)-6-oxo-1,6-dihydropyrimidine-4-carboxamide] | 4.3 | 0.42 | 0.29 | 0.8 |  |  |
| CN(C)c1nc(C(=O)N[C@@H](c2ccc(C(F)F)cc2)C2(C)CC2)cc(=O)[nH]1 [Example 61, N-[(R)-[4-(difluoromethyl)phenyl](1-methylcyclopropyl)methyl]-2-(dimethylamino)-6-oxo-1,6-dihydropyrimidine-4-carboxamide] | 12.3 | 0.82 | 0.75 | 1.6 |  |  |
| CN(C)c1nc(C(=O)N[C@@H](c2ccc(C(F)F)c(F)c2)C(C)(C)C)cc(=O)[nH]1 [Example 62, N-{(1R)-1-[4-(difluoromethyl)-3-fluorophenyl]-2,2-dimethylpropyl}-2-(dimethylamino)-6-oxo-1,6-dihydropyrimidine-4-carboxamide] | 5.2 | 0.55 | 0.52 | 1.2 |  |  |
| CN(C)c1nc(C(=O)N[C@@H](c2ccc(C3CC3)cc2)C2(C)CC2)cc(=O)[nH]1 [Example 71, N-[(R)-(4-cyclopropylphenyl)(1-methylcyclopropyl)methyl]-2-(dimethylamino)-6-oxo-1,6-dihydropyrimidine-4-carboxamide] | 4.8 | 0.23 | 0.21 | 0.3 |  |  |
| CN(C)c1nc(C(=O)N[C@@H](c2ccc(C(F)F)cc2F)C(C)(C)C)cc(=O)[nH]1 [Example 73, N-{(1R)-1-[4-(difluoromethyl)-2-fluorophenyl]-2,2-dimethylpropyl}-2-(dimethylamino)-6-oxo-1,6-dihydropyrimidine-4-carboxamide] | 6.9 | 0.26 | 0.17 | 1.2 |  |  |
| CN(C)c1nc(C(=O)N[C@@H](c2ccc(C(C)(F)F)cc2)C(C)(C)C)cc(=O)[nH]1 [Example 76, N-{(1R)-1-[4-(1,1-difluoroethyl)phenyl]-2,2-dimethylpropyl}-2-(dimethylamino)-6-oxo-1,6-dihydropyrimidine-4-carboxamide] | 4.5 | 0.11 | 0.12 | 1.6 |  |  |
| CC(C)[C@@H](NC(=O)c1cc(=O)[nH]c(N(C)C)n1)c1ccc(C(C)(F)F)c(F)c1 [Example 77, N-{(1R)-1-[4-(1,1-difluoroethyl)-3-fluorophenyl]-2-methylpropyl}-2-(dimethylamino)-6-oxo-1,6-dihydropyrimidine-4-carboxamide] | 7.3 | 0.21 | 0.19 | 1.1 |  |  |
| COc1cc(C(F)(F)F)ccc1C(C)(C)NC(=O)c1cc(=O)[nH]c(N(C)C)n1 [Example 79, 2-(dimethylamino)-N-{1-[2-methoxy-4-(trifluoromethyl)phenyl]-1-methylethyl}-6-oxo-1,6-dihydropyrimidine-4-carboxamide] | 6.2 | 6.4 | 7.7 | 0.9 |  |  |
| CN(C)c1nc(C(=O)NC(C)(C)c2ccc(C(F)(F)F)cc2Cl)cc(=O)[nH]1 [Example 80, N-{1-[2-chloro-4-(trifluoromethyl)phenyl]-1-methylethyl}-2-(dimethylamino)-6-oxo-1,6-dihydropyrimidine-4-carboxamide] | 1.7 | 0.65 | 0.79 | 0.4 |  |  |
| C[C@@H](NC(=O)c1cc(=O)[nH]c(N(C)C)n1)c1ccc(OC(F)(F)F)cc1 [Example 87, 2-(dimethylamino)-6-oxo-N-{(1R)-1-[4-(trifluoromethoxy)phenyl]ethyl}-1,6-dihydropyrimidine-4-carboxamide] | 2.2 |  |  | 0.5 | 1.1 | 0.74 |
| CC[C@@H](NC(=O)c1cc(=O)[nH]c(N(C)C)n1)c1ccc(SC(F)(F)F)cc1 [Example 88, 2-(dimethylamino)-6-oxo-N-[(1R)-1-{4-[(trifluoromethyl)sulfanyl]phenyl}propyl]-1,6-dihydropyrimidine-4-carboxamide] | 1.8 | 0.51 | 0.69 | 0.3 | 0.61 | 5.05 |
| C[C@@H](NC(=O)c1cc(=O)[nH]c(N(C)C)n1)c1ccc(S(F)(F)(F)(F)F)cc1 [Example 89, 2-(dimethylamino)-6-oxo-N-{(1R)-1-[4-(pentafluoro-λ^6-sulfanyl)phenyl]ethyl}-1,6-dihydropyrimidine-4-carboxamide] | 2.9 |  |  | 0.4 | 1.1 | 0.41 |
| C[C@@H](NC(=O)c1cc(=O)[nH]c(N(C)C)n1)c1ccc(OC(F)(F)F)c(F)c1 [Example 90, 2-(dimethylamino)-N-{(1R)-1-[3-fluoro-4-(trifluoromethoxy)phenyl]ethyl}-6-oxo-1,6-dihydropyrimidine-4-carboxamide] | 2.7 |  |  | 0.5 | 0.69 | 0.28 |
| CC(C)[C@@H](NC(=O)c1cc(=O)[nH]c(N(C)C)n1)c1ccc(OC(F)(F)F)cc1 [Example 91, 2-(dimethylamino)-N-{(1R)-2-methyl-1-[4-(trifluoromethoxy)phenyl]propyl}-6-oxo-1,6-dihydropyrimidine-4-carboxamide] | 5.1 |  |  | 0.6 | 0.64 | 0.19 |
| CN(C)c1nc(C(=O)NC2(c3ccc(SC(F)(F)F)cc3)CC2)cc(=O)[nH]1 [Example 92, 2-(dimethylamino)-6-oxo-N-(1-{4-[(trifluoromethyl)sulfanyl]phenyl}cyclopropyl)-1,6-dihydropyrimidine-4-carboxamide] | 1.7 |  |  | 0.4 | 2.5 | 1.8 |
